Values joined by “and” are separate entries in the source; they are usually repeats but may differ in a detail not shown here. Identical values can stand only once.
Tests used:
[1] = target: T1, DRD2 (D2 long receptor) (Homo sapiens, UniProt P14416); experiment: Gαi/o-mediated cAMP inhibition (GloSensor split-luciferase cAMP reporter), HEK293T; format: cell-based; conditions: for EC50: agonist, Gαi/o-mediated cAMP inhibition, read-out: EC50 ± SEM; for Response, Fig_S11b dose-response: individual replicates;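 for all read-outs here: compounds applied 15 min at room temperature, then luciferin plus 400 nM isoproterenol to raise cAMP through endogenous β2-adrenergic receptors, luminescence read 15 min later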
T1 sequence (P14416 whole entry): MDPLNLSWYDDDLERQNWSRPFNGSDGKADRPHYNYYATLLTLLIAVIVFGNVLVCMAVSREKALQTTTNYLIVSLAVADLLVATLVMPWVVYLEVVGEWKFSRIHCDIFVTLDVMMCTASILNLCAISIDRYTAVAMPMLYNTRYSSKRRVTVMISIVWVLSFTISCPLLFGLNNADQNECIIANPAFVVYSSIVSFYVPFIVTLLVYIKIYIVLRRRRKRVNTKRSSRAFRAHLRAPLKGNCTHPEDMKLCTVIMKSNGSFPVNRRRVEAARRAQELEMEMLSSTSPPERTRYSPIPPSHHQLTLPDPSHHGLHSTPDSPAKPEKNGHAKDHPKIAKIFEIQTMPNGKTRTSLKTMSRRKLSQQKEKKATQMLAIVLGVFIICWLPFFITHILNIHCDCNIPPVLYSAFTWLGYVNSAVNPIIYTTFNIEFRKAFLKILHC

[2] = target: DRD2 (D2 long receptor) wild-type (Homo sapiens, UniProt P14416); experiment: Radioligand competition binding, [3H]-N-methylspiperone, HEK293T membranes; conditions: DRD2; [3H]-methylspiperone (0.8-1.0 nM); read-out: Ki
DRD2 (D2 long receptor) wild-type, sequence (P14416 whole entry): as above

[3] = target: T2, DRD4 (D4.4 variant) (Homo sapiens, UniProt P21917); experiment: Gαi/o-mediated cAMP inhibition (GloSensor); format: cell-based; conditions: DRD4; agonist, cAMP inhibition; read-out: EC50 ± SEM
T2 sequence (P21917 1-419): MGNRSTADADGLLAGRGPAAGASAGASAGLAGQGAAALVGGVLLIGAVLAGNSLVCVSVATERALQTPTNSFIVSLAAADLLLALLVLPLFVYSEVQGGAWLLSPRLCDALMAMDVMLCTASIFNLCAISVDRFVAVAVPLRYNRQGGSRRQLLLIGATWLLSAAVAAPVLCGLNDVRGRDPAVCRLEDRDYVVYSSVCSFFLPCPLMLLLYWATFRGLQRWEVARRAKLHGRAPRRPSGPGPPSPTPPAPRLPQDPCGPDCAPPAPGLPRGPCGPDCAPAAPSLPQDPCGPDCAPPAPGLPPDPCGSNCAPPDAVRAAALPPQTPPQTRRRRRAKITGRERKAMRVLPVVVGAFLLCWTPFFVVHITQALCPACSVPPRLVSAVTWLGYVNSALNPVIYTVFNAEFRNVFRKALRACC

[4] = target: T2, DRD4 (D4.4 variant); experiment: β-arrestin2 recruitment (Tango); format: cell-based; conditions: DRD4; Tango; read-out: EC50 ± SEM
[5] = target: T1, DRD2 (D2 long receptor); experiment: β-arrestin2 recruitment (Tango), HTLA cells; format: cell-based; conditions: for EC50: β-arrestin2 recruitment (Tango), read-out: EC50 ± SEM; for response, Fig_S11c dose-response source data: Log[Drug] -5, replicate values; for Response, Fig_S11c dose-response: individual replicates
[6] = target: DRD3 (Homo sapiens, UniProt P35462); experiment: β-arrestin2 recruitment (Tango); format: cell-based; conditions: DRD3, Tango; for EC50: read-out: EC50 ± SEM
DRD3, sequence (P35462 whole entry): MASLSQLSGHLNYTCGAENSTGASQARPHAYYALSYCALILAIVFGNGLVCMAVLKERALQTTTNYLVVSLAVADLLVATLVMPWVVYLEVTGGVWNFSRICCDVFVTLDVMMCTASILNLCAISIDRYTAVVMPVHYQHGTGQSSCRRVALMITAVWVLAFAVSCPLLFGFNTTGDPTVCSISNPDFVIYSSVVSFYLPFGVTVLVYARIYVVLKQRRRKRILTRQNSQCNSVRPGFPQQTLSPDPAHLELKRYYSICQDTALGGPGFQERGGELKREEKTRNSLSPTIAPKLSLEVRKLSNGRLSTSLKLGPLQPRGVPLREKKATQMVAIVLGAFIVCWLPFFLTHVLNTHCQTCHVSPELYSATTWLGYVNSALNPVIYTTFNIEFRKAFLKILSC

[7] = target: DRD2 F1103.28A (Homo sapiens, UniProt P14416, F110A); format: binding; set-up: expressed in transfected cells; host or cells: HEK293T (ATCC CRL-11268); conditions: DRD2 F1103.28A; for Ki: read-out: Ki
DRD2 F1103.28A, sequence (P14416 whole entry F110A): as the sequence (P14416 whole entry) above, with F110A counted along it

[8] = target: T3, DRD4 (D4.4 variant) wild-type (Homo sapiens, UniProt P21917); experiment: Radioligand competition binding, [3H]-N-methylspiperone; conditions: for Ki: DRD4, [3H]-methylspiperone (0.8-1.0 nM), read-out: Ki
T3 sequence (P21917 1-419): T2 sequence (P21917 1-419)

[9] = target: DRD3 wild-type (Homo sapiens, UniProt P35462); experiment: as above; conditions: for Ki: DRD3, [3H]-methylspiperone (0.8-1.0 nM), read-out: Ki; for pKi ± SEM: DRD3 wild-type
DRD3 wild-type, sequence (P35462 whole entry): as the sequence (P35462 whole entry) above

Row | Compound | EC50 ([1]; DRD2) | Response, Fig_S11b dose-response ([1]; Log[Drug] -5) | Response, Fig_S11b dose-response ([1]; Log[Drug] -5.52) | Response, Fig_S11b dose-response ([1]; Log[Drug] -6) | Response, Fig_S11b dose-response ([1]; Log[Drug] -6.52) | Response, Fig_S11b dose-response ([1]; Log[Drug] -7) | Response, Fig_S11b dose-response ([1]; Log[Drug] -7.52) | Response, Fig_S11b dose-response ([1]; Log[Drug] -8) | Response, Fig_S11b dose-response ([1]; Log[Drug] -8.52) | Response, Fig_S11b dose-response ([1]; Log[Drug] -9) | Response, Fig_S11b dose-response ([1]; Log[Drug] -11) | Response, Fig_S11b dose-response ([1]; Log[Drug] -11.52) | Response, Fig_S11b dose-response ([1]; Log[Drug] -12) | Ki [2] | EC50 [3] | EC50 [4] | EC50 ([5]; DRD2) | response, Fig_S11c dose-response source data [5] | Response, Fig_S11c dose-response ([5]; Log[Drug] -6.52) | Response, Fig_S11c dose-response ([5]; Log[Drug] -7) | also measured
1 | CC(NCC1(O)CCCCC1)c1cc2ccccc2o1.Cl (stereo not drawn) [O1LE6] | 0.0331 ± 0.0188 µM | 89.3204 and 91.1814 and 93.3649 and 89.4471 and 88.0921 and 76.1419 and 96.2317 and 89.795 and 84.5788 | 91.5039 and 91.6528 and 82.6955 and 86.6619 and 92.27 and 73.2437 and 89.2098 and 91.9183 and 89.3603 | 93.6874 and 86.8392 and 81.0827 and 85.4951 and 84.0648 and 76.6312 and 94.0081 and 90.9486 and 79.3124 | 82.5466 and 82.8444 and 76.7653 and 79.6611 and 79.6234 and 70.5902 and 84.9299 and 83.4419 and 82.6896 | 69.4705 and 74.0856 and 77.7579 and 57.4355 and 50.0583 and 54.3867 and 80.2821 and 76.3198 and 67.1078 | 64.6321 and 55.65 and 60.3147 and 22.695 and 37.7317 and 15.9389 and 61.2396 and 56.2574 and 56.2742 | 44.0874 and 48.1814 and 41.755 and 12.175 and 7.433 and 11.554 and 48.1991 and 55.9732 and 50.8406 | 32.3511 and 30.5646 and 24.436 and 24.7087 and -0.0952 and 5.9082 and 29.5745 and 42.6986 and 35.9443 | 34.212 and 32.0286 and 29.2744 and 20.4555 and 1.072 and 15.4496 and 33.7709 and 34.4062 and 30.9956 | 20.5404 and 9.648 and 18.1596 and 0.62 | 13.5185 and 18.481 and 17.1411 and 15.3743 and -1.1867 and 2.859 | -3.8502 and -19.5316 and -15.1399 and -4.9694 and 6.341 and -2.4664 and 2.0891 and 0.1832 and -19.7287 | > 10 µM | > 10 µM | > 10 µM | 0.797 ± 0.0577 µM | 73.3598 and 82.2115 and 60.0642 and 63.6209 and 63.3142 and 65.0045 and 51.1507 and 58.9513 and 48.4491 | 30.014 | 10.4893 and 10.462 and 11.7147 and 9.282 and 6.266 and 8.074 and 10.4045 and 10.5346 and 7.978 | Emax relative to quinpirole response ([1]; DRD2, cAMP inhibition): 91.90%; Emax relative to quinpirole response ([5]; DRD2, Tango): 70.08%; Response, Fig_S11c dose-response ([5]; Log[Drug] -7.52): 6.009 and 6.371 and 5.905 and 4.934 and 4.227 and 4.993 and 4.682 and 6.374 and 4.32; Response, Fig_S11c dose-response ([5]; Log[Drug] -8): 4.1038 and 4.071 and 3.602 and 3.942 and 4.272 and 4.026 and 4.857 and 4.849 and 4.688; Response, Fig_S11c dose-response ([5]; Log[Drug] -8.52): 3.803 and 4.0098 and 4.032 and 4.312 and 4.259 and 4.357 and 4.07 and 4.763 and 3.775; Response, Fig_S11c dose-response ([5]; Log[Drug] -9): 4.244 and 4.685 and 3.406 and 3.869 and 4.425 and 4.183 and 3.883 and 3.8713 and 3.512; Response, Fig_S11c dose-response ([5]; Log[Drug] -9.52): 4.538 and 3.818 and 3.898 and 3.793 and 4.174 and 4.462 and 3.884 and 3.705 and 3.5; Response, Fig_S11c dose-response ([5]; Log[Drug] -10): 3.12 and 5.224 and 4.08 and 4.167 and 4.261 and 4.387 and 3.865 and 3.579 and 4.318; Response, Fig_S11c dose-response ([5]; Log[Drug] -10.52): 3.591 (2×) and 4.048 and 3.394 and 3.852 and 3.958 and 3.858 and 3.561 and 3.474; Response, Fig_S11c dose-response ([5]; Log[Drug] -11): 5.996 and 3.267 and 3.43 and 3.872 and 3.92 and 4.064 and 4.092 and 3.609 and 4.397; Response, Fig_S11c dose-response ([5]; Log[Drug] -11.52): 4.744 and 4.248 and 3.765 and 3.919 and 3.901 and 3.85 and 3.587 and 4.237 and 3.779; Response, Fig_S11c dose-response ([5]; Log[Drug] -12): 4.068 (2×) and 3.901 and 3.393 and 4.0327 and 3.921 and 3.9 and 3.99 and 3.547; Emax relative to quinpirole response [6]: 32.40%; EC50 [6]: 2.53 ± 0.29 µM; Ki [7]: > 10 µM; Ki [8]: 5.89 µM; pKi ± SEM ([8]; DRD4 wild-type): 5.23±0.05; Ki [9]: 0.76 µM; pKi ± SEM [9]: 6.12±0.17
2 | CC(NCC1(O)CCCCC1)c1cc2cccc(O)c2o1.Cl (stereo not drawn) [O2LE6] | > 10 µM | 2.57 and -6.2065 and 9.406 and 22.878 and 21.3481 and -11.9066 and 1.916 | 6.28 and 4.868 and 17.437 and 8.981 and 7.366 and 4.306 and -2.8216 and 10.8339 and 3.867 | -4.6609 and -0.5921 | -4.5336 and 10.5534 and 15.2708 and -15.8082 and -11.6836 | 2.459 and 17.8523 and -17.1557 and -9.0384 and -5.1068 and -4.6609 and -7.169 | -18.3605 and -3.0503 and 3.567 and -20.6831 and -11.3334 and 8.381 and -20.49 | -13.294 and 23.168 and -7.9784 and -20.598 and -10.4409 and -9.4634 and -20.4343 | 0.7703 and -10.5254 and -9.1135 and 3.329 and -12.6933 and -0.7512 and -34.034 and -13.4672 and -11.5164 | 2.182 and 8.19 and 4.563 and -3.0886 and 6.152 and -13.6902 and -0.3134 | -21.7935 and 4.314 and -22.2642 and -20.2156 and 2.7337 and -9.1755 | 5.117 and 27.9022 and 12.3983 and -0.5921 and -2.4314 and -6.9461 | 6.64 and -0.2818 and -18.9406 and 16.0358 and 13.8258 and -18.8737 and -20.713 and -0.5921 | > 10 µM | > 10 µM | > 10 µM | > 10 µM | 16.7808 and 14.8237 and 14.215 and 18.5342 and 14.2817 and 15.7604 and 11.4227 and 17.086 and 21.2736 | 3.717 | 2.811 and 3.15 and 4.053 and 3 and 2.812 and 3.498 and 5.616 and 3.218 and 2.5633 | Response, Fig_S11b dose-response ([1]; Log[Drug] -9.52): -7.1755 and -21.4059 and -24.6779 and -18.9406 and -5.1068 and 6.486; Response, Fig_S11b dose-response ([1]; Log[Drug] -10): -19.2464 and 38.0628 and -6.9263 and -30.0753 and -2.0262 and 6.261 and -22.9424 and -9.1198 and -15.8639; Response, Fig_S11b dose-response ([1]; Log[Drug] -10.52): -15.9241 and -8.3937 and 23.898 and 3.978 and -13.6344; Response, Fig_S11c dose-response ([5]; Log[Drug] -7.52): 2.895 and 3.102 and 3.119 and 2.48 and 2.571 and 2.809 and 3.052 and 1.009 and 2.448; Response, Fig_S11c dose-response ([5]; Log[Drug] -8): 2.815 and 2.652 and 3.1462 and 2.523 and 2.762 and 2.623 and 2.494 and 3.6148 and 1.539; Response, Fig_S11c dose-response ([5]; Log[Drug] -8.52): 3.296 and 2.4132 and 3.209 and 2.229 and 3.453 and 2.266 and 3.066 and 1.184 and 1.383; Response, Fig_S11c dose-response ([5]; Log[Drug] -9): 2.8445 and 2.312 and 2.494 and 3.046 and 2.174 and 2.343 and 1.927 and 6.732 and 6.534; Response, Fig_S11c dose-response ([5]; Log[Drug] -9.52): 2.362 and 2.4976 and 2.923 and 2.359 and 2.154 and 2.345 and 3.43 and 1.364 and 3.781; Response, Fig_S11c dose-response ([5]; Log[Drug] -10): 3.645 and 2.627 and 2.787 and 2.06 and 2.1828 and 2.292 and 2.6786 and 2.1344 and 1.378; Response, Fig_S11c dose-response ([5]; Log[Drug] -10.52): 2.259 and 2.232 and 2.66 and 2.1982 and 2.238 and 2.169 and 4.722 and 1.378 and 2.323; Response, Fig_S11c dose-response ([5]; Log[Drug] -11): 2.37 and 2.502 and 2.312 and 2.1828 (2×) and 2.084 and 1.9407 and 3.057 and 2.849; Response, Fig_S11c dose-response ([5]; Log[Drug] -11.52): 2.185 and 2.208 and 2.688 and 2.5566 and 2.233 and 3.071 and 1.779 and 1.392 and 2.508; Response, Fig_S11c dose-response ([5]; Log[Drug] -12): 2.133 and 2.211 and 2.421 and 5.046 and 2.173 and 2.317 and 0.6771 and 1.599 and 1.023; EC50 [6]: > 10 µM; pKi ± SEM [7]: 5.24±0.17; Ki [7]: 5.75 µM; Ki [8]: > 10 µM; Ki [9]: 3.47 µM; pKi ± SEM [9]: 5.46±0.10

From article PMC7044277 (Nature Communications, 2020)
